Values after ≈ are worked out from the molar mass of the structure shown. Active and inactive are the calls of the source. The rule behind the calls is not given here.

What all share (format): functional
The test system of one assay is Pseudomonas aeruginosa. The assay can be described thus: Antibacterial activity against Pseudomonas aeruginosa 71 clinical isolate assessed as growth inhibition at 1 mg/ml after 24 hr by NCCLS agar diffusion method. (In general: Agar diffusion results depend on both activity and mobility in agar.)
The next assay deals with Klebsiella pneumoniae. The experiment in a line: Antibacterial activity against Klebsiella pneumoniae J/I/4 clinical isolate assessed as growth inhibition at 1 mg/ml after 24 hr by NCCLS agar diffusion method. Particulars: for zone of inhibition at 1000 µg/mL: J/I/4, 24 h, read-out: DIZ.
The test system of the next assay is Micrococcus luteus. The experiment in a line: Antibacterial activity against Micrococcus luteus ATCC 9341 clinical isolate assessed as growth inhibition at 1 mg/ml after 24 hr by NCCLS agar diffusion method. The conditions noted are these: for zone of inhibition at 1000 µg/mL: ATCC 9341, 24 h, read-out: DIZ.
The next assay concerns Bacillus pumilus. The assay can be described thus: Antibacterial activity against Bacillus pumilus 11778 clinical isolate assessed as growth inhibition at 1 mg/ml after 24 hr by NCCLS agar diffusion method. Particulars: for zone of inhibition at 1000 µg/mL: Bacillus pumilus, 11778, 24 h, read-out: DIZ.
A further assay has as its system Vibrio cholerae. The experiment in a line: Antibacterial activity against Vibrio cholerae 759 clinical isolate assessed as growth inhibition at 1 mg/ml after 24 hr by NCCLS agar diffusion method. Particulars: for zone of inhibition at 1000 µg/mL: Vibrio cholerae, 759, 24 h, read-out: DIZ.
Another assay has as its system Staphylococcus aureus. The assay can be described thus: Antibacterial activity against Staphylococcus aureus 29737 clinical isolate assessed as growth inhibition at 1 mg/ml after 24 hr by NCCLS agar diffusion method. The conditions noted are these: for zone of inhibition at 1000 µg/mL: Staphylococcus aureus, 29737, 24 h, read-out: DIZ.
Assay [1] concerns Shigella dysenteriae. The assay can be described thus: Antibacterial activity against Shigella dysenteriae 15 clinical isolate assessed as growth inhibition at 1 mg/ml after 24 hr by NCCLS agar diffusion method. The conditions noted are these: for zone of inhibition at 1000 µg/mL: Shigella dysenteriae, 15, 24 h, read-out: DIZ.
The next assay relates to Escherichia coli. The assay can be described thus: Antibacterial activity against Escherichia coli 319 clinical isolate assessed as growth inhibition at 1 mg/ml after 24 hr by NCCLS agar diffusion method. The conditions noted are these: for zone of inhibition at 1000 µg/mL: Escherichia coli, 319, 24 h, read-out: DIZ.
For assay [2], the system named is Shigella dysenteriae. The assay can be described thus: Antibacterial activity against Shigella dysenteriae 15 clinical isolate assessed as growth inhibition after 24 hr by agar dilution method. The conditions noted are these: Shigella dysenteriae, 15, 24 h. (In general: In agar dilution the substance is mixed into plates at graded concentrations.)
Assay [3] deals with Aspergillus niger. The assay can be described thus: Antifungal activity against Aspergillus niger clinical isolate assessed as growth inhibition at 1 mg/ml after 96 hr by NCCLS agar diffusion method. Particulars: read-out: DIZ.
For assay [4], the system named is Candida albicans. The experiment in a line: Antifungal activity against Candida albicans clinical isolate assessed as growth inhibition at 1 mg/ml after 96 hr by NCCLS agar diffusion method. The conditions noted are these: read-out: DIZ.
Assay [5] concerns Candida albicans. The assay can be described thus: Antifungal activity against Candida albicans clinical isolate assessed as growth inhibition after 96 hr by agar dilution method.
For assay [6], the system named is Candida tropicalis. The assay can be described thus: Antifungal activity against Candida tropicalis clinical isolate assessed as growth inhibition after 96 hr by agar dilution method.
Assay [7] concerns Candida tropicalis. The assay can be described thus: Antifungal activity against Candida tropicalis clinical isolate assessed as growth inhibition at 1 mg/ml after 96 hr by NCCLS agar diffusion method. The conditions noted are these: read-out: DIZ.
Assay [8] relates to Aspergillus niger. The experiment in a line: Antifungal activity against Aspergillus niger clinical isolate assessed as growth inhibition after 96 hr by agar dilution method.

Consider `CNc1ccc(C2(c3ccc(NC)cc3)C(=O)c3ccccc3C2=O)cc1`, for which the “growth inhibition (GI)” value with Pseudomonas aeruginosa, with Micrococcus luteus, in the assay with Bacillus pumilus, in the assay on Staphylococcus aureus and in the assay on Shigella dysenteriae [1] was “inactive” throughout. In addition, the figures for the zone of inhibition at 1000 µg/mL with Klebsiella pneumoniae, in the assay on Vibrio cholerae and with Escherichia coli were 7.5 mm, 8 mm and 7 mm, respectively.

As to `Nc1ccc(C2(c3ccc(N)c(I)c3)C(=O)c3ccccc3C2=O)cc1I`, the zone of inhibition at 1000 µg/mL in the assay on Pseudomonas aeruginosa (Pseudomonas aeruginosa, 71, 24 h, read-out: DIZ) turned out to be 8 mm; in the assay with Micrococcus luteus, 8 mm; in the assay with Staphylococcus aureus, 8 mm. Also, the “growth inhibition (GI)” value with Klebsiella pneumoniae, with Bacillus pumilus, with Vibrio cholerae, with Shigella dysenteriae [1] and in the assay with Escherichia coli was “inactive” in each case.

For the molecule `Nc1ccc(C2(c3ccc(N)c(Cl)c3)C(=O)c3ccccc3C2=O)cc1Cl`, the MIC (usually the lowest concentration found to suppress growth) in the assay on Shigella dysenteriae [2] amounted to 32000 µg/mL (≈ 80.6 mM). For the same molecule, the “growth inhibition (GI)” value with Pseudomonas aeruginosa, with Micrococcus luteus, in the assay with Bacillus pumilus, in the assay on Vibrio cholerae and with Staphylococcus aureus was “inactive” each time. Besides, the zone of inhibition at 1000 µg/mL in the assay on Klebsiella pneumoniae is 8 mm; with Shigella dysenteriae [1] it was 6 mm; in the assay on Escherichia coli, 8 mm.

Take `CN(C)c1ccc(C2(O)C(=O)c3ccccc3C2=O)cc1`: the “growth inhibition (GI)” value with Pseudomonas aeruginosa, in the assay on Klebsiella pneumoniae, with Micrococcus luteus, in the assay on Bacillus pumilus, in the assay on Vibrio cholerae and in the assay on Shigella dysenteriae [1] was “inactive” in each case. For the same molecule, the zone of inhibition at 1000 µg/mL with Staphylococcus aureus and with Escherichia coli was 7 mm in each case.

Take `Nc1ccc(C2(c3ccc(N)cc3)C(=O)c3ccccc3C2=O)cc1`: the “growth inhibition (GI)” value in the assay on Pseudomonas aeruginosa, in the assay on Micrococcus luteus, with Vibrio cholerae and in the assay with Staphylococcus aureus was “inactive” throughout. Moreover, the zone of inhibition at 1000 µg/mL was found to be 7 mm in the assay with Klebsiella pneumoniae; 10 mm in the assay with Aspergillus niger [3]; 8 mm in the assay on Bacillus pumilus; 9 mm in the assay on Candida albicans [4]; 8.2 mm in the assay on Candida tropicalis [7]; 7 mm in the assay with Shigella dysenteriae [1]. Besides, the zone of inhibition at 1000 µg/mL in the assay on Escherichia coli worked out at 6 mm. The MIC with Candida albicans [5], in the assay with Candida tropicalis [6] and in the assay on Aspergillus niger [8] was 1000 µg/mL (≈ 3.05 mM) in each case.

In the case of `CCN(CC)c1ccc(C2(O)C(=O)c3ccccc3C2=O)cc1`, the “growth inhibition (GI)” value in the assay with Pseudomonas aeruginosa, in the assay on Klebsiella pneumoniae, in the assay on Micrococcus luteus, in the assay on Vibrio cholerae and in the assay on Staphylococcus aureus was “inactive” in each case. Also, the zone of inhibition at 1000 µg/mL worked out at 7 mm with Bacillus pumilus, 7 mm in the assay with Shigella dysenteriae [1] and 9 mm in the assay on Escherichia coli.

In the case of `Cc1ccc(NC2(c3cc(C)c(C)cc3N)C(=O)c3ccccc3C2=O)cc1C`, the “growth inhibition (GI)” value with Pseudomonas aeruginosa, in the assay on Klebsiella pneumoniae, with Micrococcus luteus, in the assay with Bacillus pumilus, with Vibrio cholerae and in the assay on Staphylococcus aureus was “inactive” each time. In the assay on Shigella dysenteriae [1], the “growth inhibition (GI)” value is “inactive”. Also, the zone of inhibition at 1000 µg/mL with Escherichia coli was 7 mm.

Consider `COc1cc(C2(c3ccc(N)c(OC)c3)C(=O)c3ccccc3C2=O)ccc1N`, for which the “growth inhibition (GI)” value in the assay with Pseudomonas aeruginosa, in the assay on Micrococcus luteus, in the assay with Staphylococcus aureus, with Shigella dysenteriae [1] and in the assay on Escherichia coli was “inactive” each time. Besides, the figures for the zone of inhibition at 1000 µg/mL with Klebsiella pneumoniae, in the assay on Bacillus pumilus and in the assay with Vibrio cholerae were 7 mm, 8 mm and 7 mm, respectively.

For the molecule `Nc1ccc(C2(c3ccc(N)c([N+](=O)[O-])c3)C(=O)c3ccccc3C2=O)cc1[N+](=O)[O-]`, the “growth inhibition (GI)” value with Pseudomonas aeruginosa, in the assay on Klebsiella pneumoniae, in the assay on Micrococcus luteus, in the assay with Bacillus pumilus, in the assay on Vibrio cholerae and with Shigella dysenteriae [1] was “inactive” throughout. The “growth inhibition (GI)” value in the assay with Escherichia coli was “inactive”. Moreover, the zone of inhibition at 1000 µg/mL in the assay on Staphylococcus aureus turned out to be 8 mm.

As for `Cc1cc(C2(c3cc(C)c(N)cc3F)C(=O)c3ccccc3C2=O)c(F)cc1N`, the “growth inhibition (GI)” value with Pseudomonas aeruginosa, in the assay with Micrococcus luteus, in the assay with Vibrio cholerae, in the assay on Staphylococcus aureus and in the assay on Shigella dysenteriae [1] was “inactive” each time. In addition, the zone of inhibition at 1000 µg/mL with Klebsiella pneumoniae, with Bacillus pumilus and in the assay on Escherichia coli was 7 mm each time.

Take `Cc1cc(C2(c3cc(C)c(N)c(C)c3)C(=O)c3ccccc3C2=O)cc(C)c1N`: the “growth inhibition (GI)” value in the assay with Pseudomonas aeruginosa, in the assay with Klebsiella pneumoniae, in the assay on Micrococcus luteus, in the assay with Vibrio cholerae, with Staphylococcus aureus and with Shigella dysenteriae [1] was “inactive” each time. Further, the “growth inhibition (GI)” value with Escherichia coli is “inactive”. For the same molecule, the zone of inhibition at 1000 µg/mL with Bacillus pumilus is 9 mm.

In the case of `COc1cc(N)ccc1C1(O)C(=O)c2ccccc2C1=O`, the “growth inhibition (GI)” value with Pseudomonas aeruginosa, with Klebsiella pneumoniae, in the assay with Bacillus pumilus, with Vibrio cholerae, in the assay with Shigella dysenteriae [1] and in the assay with Escherichia coli was “inactive” throughout. Further, the zone of inhibition at 1000 µg/mL stood at 8 mm in the assay on Micrococcus luteus and 7 mm in the assay with Staphylococcus aureus.

As to `Nc1ccc(C2(O)C(=O)c3ccccc3C2=O)c2ncccc12`, the “growth inhibition (GI)” value in the assay on Pseudomonas aeruginosa, in the assay with Klebsiella pneumoniae, in the assay with Micrococcus luteus, in the assay on Bacillus pumilus, in the assay with Vibrio cholerae and in the assay on Staphylococcus aureus was “inactive” each time. Also, in the assay with Shigella dysenteriae [1], the “growth inhibition (GI)” value is “inactive”. Also, the zone of inhibition at 1000 µg/mL in the assay with Escherichia coli is 8 mm.

(Values after ChEMBL document CHEMBL3045468, “I2 catalyzed FriedelCrafts alkylation reaction of substituted anilines with ninhydrin: formation of novel products and their antimicrobial evaluation” (2013).)
